Data published in patent US20110110924A1, “Resistin as a Marker and Therapeutic Target for Cardiovascular Disease” (priority 2004, published 2011).
Peptide text beside a SMILES is read from it. * marks the point of attachment. Cbz = O=C(OCc1ccccc1)*

Tests used:
[1] = system: mouse resistin in mouse peritoneal macrophages; experiment: Resistin expression in activated mouse peritoneal macrophages; type: cell-based; settings: macrophages harvested after thioglycolate treatment; data not shown
[2] = system: sTNFR2 secretion by human macrophages; experiment: sTNFR2 secretion into medium by primary human macrophages; type: cell-based; settings: LPS 1 μg/ml, time course
Protocol: (§1) Peripheral blood mononuclear cells were isolated from whole blood of healthy donors following apheresis and elutriation. Greater than 90% of these monocytes expressed CD14 and HLA-DR. Cells were plated in 24 well plates at a density of 10^6 cells per well, allowed to adhere for 4 hours, then washed with Dulbecco's Modified Eagles Medium (DMEM) and further cultured in 10% FBS in DMEM supplemented with 5 ng/ml GM-CSF (Sigma) to promote macrophage differentiation. All experiments were performed after overnight equilibration with macrophage serum free medium (Gibco/Invitrogen) supplemented with 5 ng/ml GM-CSF. […]
Resistin concentrations, in cell media and human plasma, were assessed with a commercially available ELISA (Linco) and normalized to cell protein. […] Direct comparison of standard curves generated by the Linco kit with another commercially available resistin ELISA (Biovendor) yielded high correlation (rho=0.99, p<0.001), except that the Biovendor results were approximately 30% lower than those determined with the Linco assay. […] Resistin levels in 40 plasma samples were measured using both Linco and Biovendor ELISA kits, with moderate correlation (rho=0.66). Levels of soluble TNFα Receptor-2 were measured using a commercially available immunoassay (R&D Systems). […]

[3] = system: TNFα mRNA in primary human macrophages; experiment: TNFα mRNA expression in primary human macrophages (real time PCR); type: cell-based; settings: LPS 1 μg/ml
Protocol: as §1, with “GM-CSF. Cells were treated as indicated with LPS (Sigma), aspirin (Sigma), SN50 and control peptide (Biomol), MG132, PD98059, SB20358 (Calbiochem), and TNFα (R&D Systems).” for “GM-CSF.”
(§2) RNA was isolated using RNeasy® Mini Kit (Qiagen), then subjected to DNAse digestion followed by reverse transcription (Invitrogen). mRNA transcripts were quantified by the dual-labeled fluorogenic probe method for real time PCR, using a Prism® 7900 thermal cycler and sequence detector (Perkin Elmer/ABI). […]
Primer and probe for TNFα was obtained from ABI. […] The fold change of the gene of interest expression relative to the vehicle treated group was expressed as 2^− δδ^CT, in which δδ CT equals the δCT of the compound treated group minus δCT of the chosen control group, which was normalized to 1.

[4] = system: resistin mRNA in primary human macrophages; experiment: Resistin mRNA expression in primary human macrophages (real time PCR); type: cell-based; settings: for effect on induction of resistin by LPS: pretreated 2 h, then LPS (1 ng/ml) 24 h
Protocol: (§3) Peripheral blood mononuclear cells were isolated from whole blood of healthy donors following apheresis and elutriation. […] Cells were plated in 24 well plates at a density of 10^6 cells per well, allowed to adhere for 4 hours, then washed with Dulbecco's Modified Eagles Medium (DMEM) and further cultured in 10% FBS in DMEM supplemented with 5 ng/ml GM-CSF (Sigma) to promote macrophage differentiation. All experiments were performed after overnight equilibration with macrophage serum free medium (Gibco/Invitrogen) supplemented with 5 ng/ml GM-CSF. […] Adenovirus expressing activated IKK in pAD-easy™ vector with GFP and control vector were a generous gift from Steven Shoelson.
as §2, with “Elmer/ABI). Real time PCR was performed by using Taqman® Universal Polymerase Master Mix (Applied Biosystems). The primers and probes used in the real-time PCR were the following:” for “Elmer/ABI).”
The cycle number at which the transcripts of the gene of interest was detectable (CT) was normalized to the cycle number of 36B4 detection, referred to as δ CT. The fold change of the gene of interest expression relative to the vehicle treated group was expressed as 2^− δδ^CT, in which δδ CT equals the δCT of the compound treated group minus δCT of the chosen control group, which was normalized to 1.

plasma resistin = experiment: Human endotoxemia study, plasma resistin (ELISA); type: in vivo; settings: for increase of plasma resistin levels: healthy volunteers
Protocol: In another experiment, short term variation in plasma levels was examined by repeated sampling in young healthy control subjects of an additional clinical research study (Reilly et al, 2004c, and Lehrke, 2004, both cited above). Baseline variability in plasma resistin was assessed over a 24 hour period, in healthy young volunteers (n=6; three male and three females; age 24-34; BMI 24.3±1.07) without any past medical history and on no medications. These subjects were recruited to a 60-hour inpatient, General Clinical Research Center (GCRC) protocol designed to assess the metabolic responses to an inflammatory stimulus. Plasma resistin levels were determined in serial blood samples, collected at eight time points over 24 hours prior to the intravenous administration of human-research-grade endotoxin (3 ng/kg) as described in more detail in Reilly et al, 2004c, cited above.
Resistin concentrations, in cell media and human plasma, were assessed with a commercially available ELISA (Linco) and normalized to cell protein. Average correlation coefficient for standards using 4 parameter fit was 0.99. Intra-assay and inter-assay coefficients of variance were 4.7% and 9.1%, respectively. Direct comparison of standard curves generated by the Linco kit with another commercially available resistin ELISA (Biovendor) yielded high correlation (rho=0.99, p<0.001), except that the Biovendor results were approximately 30% lower than those determined with the Linco assay. This appeared to be related to the standards used for calibration. Discrepant absolute values among different assays, including the Biovendor assay, were recently described (Pfutzner 2003 cited above). Resistin levels in 40 plasma samples were measured using both Linco and Biovendor ELISA kits, with moderate correlation (rho=0.66). Levels of soluble TNFα Receptor-2 were measured using a commercially available immunoassay (R&D Systems). Intra-assay and inter assay coefficients of variance were 5.1% and 9.8%, respectively.
Healthy volunteers (n=6, 3 male, 3 female) aged 18-45 with BMI between 20 and 30 and on no medications were studied. The University of Pennsylvania Institutional Review Board approved the study protocol and all subjects gave written informed consent. Following screening and exclusion of subjects with any clinical or laboratory abnormalities, subjects were admitted to the General Clinical Research Center at the University of Pennsylvania for a 60 hour stay. Serial blood samples were collected for 24 hours prior to and 24 hours following the intravenous administration of human research grade endotoxin [obtained from NIH Clinical Center, reference endotoxin (CCRE) (lots 1 and 2; NIHCC PDS #67801)] at a dose of 3 ng/kg given at 6 AM. Plasma and whole blood RNA (PAX tube isolators, Qiagen) samples were isolated from blood, and stored under appropriate conditions for subsequent assays.

[5] = system: resistin protein secretion by human macrophages; experiment: Resistin protein secretion by primary human macrophages (ELISA); type: cell-based
Protocol: as §3
Resistin concentrations, in cell media and human plasma, were assessed with a commercially available ELISA (Linco) and normalized to cell protein.

[6] = system: TNFα secretion by human macrophages; experiment: TNFα secretion into medium by primary human macrophages; type: cell-based; settings: LPS 1 μg/ml, time course
Protocol: Peripheral blood mononuclear cells were isolated from whole blood of healthy donors following apheresis and elutriation. Greater than 90% of these monocytes expressed CD14 and HLA-DR. Cells were plated in 24 well plates at a density of 10^6 cells per well, allowed to adhere for 4 hours, then washed with Dulbecco's Modified Eagles Medium (DMEM) and further cultured in 10% FBS in DMEM supplemented with 5 ng/ml GM-CSF (Sigma) to promote macrophage differentiation. All experiments were performed after overnight equilibration with macrophage serum free medium (Gibco/Invitrogen) supplemented with 5 ng/ml GM-CSF. Cells were treated as indicated with LPS (Sigma), aspirin (Sigma), SN50 and control peptide (Biomol), MG132, PD98059, SB20358 (Calbiochem), and TNFα (R&D Systems). Neutralizing antibodies to TNFα, IL-6, and anti-IL-6α, as well as control IgG were obtained from R&D Systems. Adenovirus expressing activated IKK in pAD-easy™ vector with GFP and control vector were a generous gift from Steven Shoelson.

[7] = LPS 24 h treatment, increasing concentration
[8] = human macrophages in cell culture

For lipopolysaccharide [LPS], the “mouse resistin expression after LPS” value [1] was “did not express detectable levels”, the “maximal secreted protein level: sTNFR2” value [2] was 39.3 ng/mL/mg and the “time at which TNFα gene expression was detectable after LPS” value [3] was 2 h. For the same compound, the “time of peak TNFα gene expression after LPS exposure” value [3] was 6 h, the “time of peak resistin gene expression after LPS” value ([4]; LPS 1 μg/ml) was 24 h and the “effect on resistin gene expression” value [4, 7] was “dramatic, dose-responsive increase”. The “time of induction of resistin mRNA after LPS exposure” value [4, 8] was 6 to 24 h, the “increase of resistin serum/plasma levels” value (plasma resistin; LPS in humans (FIG. 6A)) was “over 400%” and the “putative maximum increase in resistin due to inflammation” value (plasma resistin; endotoxin induction, Examples 6-12) was 18 to 19 ng/mL. For the same compound, the “increase of plasma resistin levels” value (plasma resistin; intravenous LPS 3 ng/kg, listed as endotoxemia) was over 7 fold, the “increase of plasma resistin levels” value (plasma resistin; intravenous LPS 3 ng/kg, listed as endotoxin) was 3-5 fold and the “time of peak resistin levels after LPS administration” value (plasma resistin; intravenous LPS 3 ng/kg, six normal volunteers) was 8 to 16 h. The “maximal secreted protein level: resistin” value ([5]; LPS 1 μg/ml, time course, normalized to cell protein) was 21.9 ng/mL/mg, the “effect on resistin protein secretion into the medium” value [5, 7] was “increase in resistin protein secretion” and the “time of induction of resistin protein after LPS exposure” value [5, 8] was 6 to 24 h. For the same compound, the “maximal secreted protein level: TNFα” value [6] was 207.2 ng/mL/mg.
`CC(C)C[C@@H](C=O)NC(=O)[C@H](CC(C)C)NC(=O)[C@H](CC(C)C)NC(=O)OCc1ccccc1` [MG132] (Cbz-Leu-Leu-Leu-aldehyde) was tested, and the “effect on endotoxin-induced activation of resistin expression” value ([4]; MG132 treatment of macrophages, data not shown) was “abrogated”.
With `COc1cccc(-c2cc(=O)c3ccccc3o2)c1N` [PD98059] the “effect on induction of resistin by LPS” value ([4]; 50 μM) was “partially blocked”.
In the case of `C[S+]([O-])c1ccc(-c2nc(-c3ccc(F)cc3)c(-c3ccncc3)[nH]2)cc1` (stereo not drawn) [SB20358], the “effect on induction of resistin by LPS” value ([4]; 2.5 μM) was “partially blocked”.
In the case of `CC(=O)Oc1ccccc1C(=O)O` [aspirin], the “effect on endotoxin-induced resistin expression” value ([4]; pre-treated with aspirin 2 h, then LPS (1 μg/ml) and aspirin 24 h, dose-dependent) was “dramatically decreased”.
IL-6: cytokine interleukin-6 was tested, and the effect on resistin ([4]; data not shown and Kaser et al, 2003) was “induces resistin modestly”.
